Data: publication PMC5927452, “Gadoxetic acid–enhanced magnetic resonance imaging to predict paritaprevir-induced hyperbilirubinemia during treatment of hepatitis C” (PLoS ONE, 2018)

Assays:
[1] = Plasma paritaprevir concentration 7 d after start of OBV/PTV/r treatment (LC-MS/MS); assay type: in vivo, human; conditions: OBV/PTV/r 25/150/100 mg orally once daily; for Log10 Ctrough: fasting steady-state plasma trough, day 7, LC-MS/MS, mean ± SD; for AUC (AUC0-6 h): plasma, day 7, 0-6 h after dosing with breakfast, trapezoidal rule
Description: This was a single-center, exploratory, prospective study. The study was approved by both the ethical review board of Juntendo University Faculty of Medicine (Jundai-Irin No-2016135) and the Ethics Committee for Human Genome/Gene Analysis Research at Kanazawa University Graduate School of Medical Sciences (No. 2016–004, serial No. 432) and was carried out in accordance with the 1964 Declaration of Helsinki and its later amendments. The study was also registered with UMIN clinical trials as UMIN000022587. Written informed consent was obtained from all patients before enrollment. The study enrolled adult patients with HCV genotype 1b chronic hepatitis or compensated liver cirrhosis using OBV/PTV/r (VIEKIRAX®; AbbVie, Inc., North Chicago, Illinois, USA) at Juntendo University Nerima Hospital. Analysis of resistance-associated variations of the NS5A Y93H substitutions in the baseline sequence was performed in a commercial laboratory (SRL, Inc., Tokyo, Japan), and the patients with the mutant type of NS5A Y93H were excluded. Patients with renal dysfunction (estimated glomerular filtration rate < 40 ml/min/1.73 m^2) were excluded. A precaution in OBV/PTV/r treatment is coadministration of statin medications. Patients taking simvastatin and atorvastatin were excluded; no other patients were taking any other type of statin. Consequently, this study involved 27 consecutive Japanese patients (8 males and 19 females), with ages ranging from 30 to 83 years, treated between June 2016 and July 2017. Twenty patients with chronic hepatitis and seven patients with liver cirrhosis were included. All patients were treated with OBV/PTV/r, at a dose of 25/150/100 mg, administered orally once daily.
Fasting steady-state plasma trough concentrations (Ctrough) of paritaprevir were determined from blood samples obtained 7 d after the start of treatment. The patients were given the same breakfast of 338 kcal, with 15% of calories from protein, 60% from fat, and 25% from carbohydrates. After the meal, the patients took the drugs orally. Paritaprevir concentrations at 2, 4, and 6 h after dosing were determined. Blood samples were centrifuged within 30 min at 1,500 rpm for 10 min at 4°C, and plasma concentrations of paritaprevir were determined using liquid chromatography–tandem mass spectrometry, as described. The area under the plasma concentration curve from 0 to 6 h (AUC0–6 h) of paritaprevir after dosing was calculated using the trapezoidal rule.

[2] = regimen of paritaprevir/ritonavir, ombitasvir, and dasabuvir with or without ribavirin; mainly indirect bilirubin, without elevations in liver enzymes; cited from earlier work
Description: The regimen of ombitasvir, paritaprevir, and ritonavir (OBV/PTV/r) without or with ribavirin has been available in Japan since 2015 and 2016, respectively. Ritonavir is included for its booster effect on paritaprevir by cytochrome P450 3A inhibitor. Paritaprevir, a nonstructural (NS)3/4A protease inhibitor, is mainly eliminated via hepatobiliary excretion. It is carried into the hepatocyte by hepatic transporters including organic anion–transporting polypeptides (OATP)1B1 and OATP1B3, located at the sinusoidal membranes of hepatocytes. These transporters also carry unconjugated bili ...

[3] = patients with hyperbilirubinemia (N = 7)
[4] = patients without hyperbilirubinemia (N = 20)

Log10 Ctrough [1, 3]: 2.768 ± 0.747 ng/ml
AUC (AUC0-6 h) [1, 3]: 37224 ± 21015 ng·h/mL
Log10 Ctrough [1, 4]: 2.169 ± 0.484 ng/ml
AUC (AUC0-6 h) [1, 4]: 31441 ± 21727 ng·h/mL
Structure (SMILES): Cc1cnc(C(=O)N[C@H]2CCCCC/C=C\[C@@H]3C[C@@]3(C(=O)NS(=O)(=O)C3CC3)NC(=O)[C@@H]3C[C@@H](Oc4nc5ccccc5c5ccccc45)CN3C2=O)cn1 [paritaprevir]
patients with elevation in total bilirubin (≥ 2.25 mg/dl) [2]: 23%
